What all share (type): functional
The species named for test [1] is Mus musculus. Briefly: The compound was tested for activity to decrease fighting in mouse.
The species entered for test [2] is Mus musculus. Briefly: The compound was tested for analgesic activity using writhing (W) test in mouse. (In general: Writhing tests count abdominal constrictions after an irritant is injected.)
For test [3], the species on record is Rattus norvegicus. Briefly: The compound was tested for analgesic activity using (RTF) tail-flick test in rat. A general note: In hot-plate and tail-flick tests a longer latency is read as antinociception.
The subject of test [4] is Rattus norvegicus. As to the kind of experiment: The compound was tested for decreasing motor activity in rat at a dose of 2 mg/Kg.
In test [5] the test system is Rattus norvegicus. As to the kind of experiment: The compound was tested for decreasing motor activity in rat. at a dose of 5 mg/Kg.
Test [6] concerns Rattus norvegicus. Briefly: The compound was tested for methamphetamine antagonism in rat at a dose of 1 mg/Kg.
In test [7] the test system is Rattus norvegicus. As to the kind of experiment: The compound was tested for methamphetamine antagonism in rat at a dose of 2 mg/Kg.
Test [8] deals with Rattus norvegicus. Briefly: The compound was tested for serotonin antagonism in rat at a dose of 1 mg/Kg.
In test [9] the test system is Rattus norvegicus. As to the kind of experiment: The compound was tested for serotonin antagonism in rat at a dose of 2 mg/Kg.
The test system of test [10] is Rattus norvegicus. As to the kind of experiment: The compound was tested for hyperexcitability in rat at a dose of 20 mg/Kg.
In test [11] the test system is Rattus norvegicus. Briefly: The compound was tested for hyperexcitability in rat at a dose of 5 mg/Kg.
In test [12] the test system is Rattus norvegicus. Briefly: The compound was tested for hyperexcitability in rat at a dose of 80 mg/Kg.
In test [13] the test system is Mus musculus. Briefly: The compound was tested for analgesic activity using writhing (W) test in mouse at a dose of 10 mg/Kg.
The test system of test [14] is Mus musculus. Briefly: The compound was tested for analgesic activity using writhing (W) test in mouse at a dose of 40 mg/Kg.
Test [15] deals with Mus musculus. Briefly: The compound was tested for activity to decrease fighting in mouse at a dose of 20 mg/Kg.
The test system of test [16] is Mus musculus. As to the kind of experiment: The compound was tested for activity to decrease fighting in mouse at a dose of 5 mg/Kg.
For test [17], the system named is Rattus norvegicus. Briefly: The compound was tested for analgesic activity using (RTF) tail-flick test in rat at a dose of 40 mg/Kg.
For test [18], the system named is Rattus norvegicus. As to the kind of experiment: The compound was tested for decreasing motor activity in rat at a dose of 20 mg/Kg.
The test system of test [19] is Rattus norvegicus. Briefly: The compound was tested for decreasing motor activity in rat at a dose of 80 mg/Kg.
In test [20] the test system is Rattus norvegicus. As to the kind of experiment: The compound was tested for methamphetamine antagonism in rat at a dose of 20 mg/Kg.
The test system of test [21] is Rattus norvegicus. As to the kind of experiment: The compound was tested for methamphetamine antagonism in rat at a dose of 5 mg/Kg.
Test [22] relates to Rattus norvegicus. Briefly: The compound was tested for methamphetamine antagonism in rat at a dose of 80 mg/Kg.
In test [23] the test system is Rattus norvegicus. Briefly: The compound was tested for serotonin antagonism in rat at a dose of 5 mg/Kg.
Test [24] has as its system Rattus norvegicus. Briefly: The compound was tested for serotonin antagonism in rat at a dose of 80 mg/Kg.
Test [25] has as its system Rattus norvegicus. Briefly: The compound was tested for analgesic activity using (RTF) tail-flick test in rat at a dose of 20 mg/Kg.
For test [26], the system named is Rattus norvegicus. As to the kind of experiment: The compound was tested for decreasing motor activity in rat at a dose of 5 mg/Kg.
Test [27] concerns Rattus norvegicus. Briefly: The compound was tested for serotonin antagonism in rat at a dose of 20 mg/Kg.
Test [28] concerns Rattus norvegicus. Briefly: The compound was tested for hyperexcitability in rat. at a dose of 80 mg/Kg.
The subject of test [29] is Mus musculus. As to the kind of experiment: The compound was tested for analgesic activity using writhing (W) test in mouse at a dose of 51 mg/Kg.
Test [30] deals with Rattus norvegicus. Briefly: The compound was tested for hyper excitability in rat at a dose of 20 mg/Kg.
Test [31] has as its system Rattus norvegicus. As to the kind of experiment: The compound was tested for hyper excitability in rat at a dose of 80 mg/Kg.
The test system of test [32] is Rattus norvegicus. As to the kind of experiment: The compound was tested for hyperexcitability in rat. at a dose of 5 mg/Kg.
The test system of test [33] is Mus musculus. As to the kind of experiment: The compound was tested for activity to decrease fighting in mouse at a dose of 10 mg/Kg.
Test [34] concerns Rattus norvegicus. As to the kind of experiment: The compound was tested for decreasing motor activity in rat at a dose of 10 mg/Kg.
Test [35] deals with Rattus norvegicus. Briefly: The compound was tested for hyperexcitability in rat at a dose of 10 mg/Kg.

Molecules are shown by their SMILES.

For orientation: ED50 means the dose that gives a 50% effect, or the effect in half of the subjects. `CC(CCCc1ccc(F)cc1)c1cc(O)c2c(c1)OC(C)(C)C1=C2CN(CC(=O)NC(N)=O)CC1` (centres undefined): the median effective dose (ED50) in test [1] was determined as 2 mg/kg; in test [2], 0.7 mg/kg; in test [3], 1.6 mg/kg. Besides, the Decrease in activity in test [4] amounted to 88%; in test [5] it was 55%; in [6], 64%; in [7], 75%; in test [8] it was 50%; in test [9], 72%. In addition, the Possible response in test [10] amounted to 90%; in [11] it was 46%; in [12], 100%.

For `CCCCCC(C)C(C)c1cc(O)c2c(c1)OC(C)(C)C1=C2CN(CC(=O)N(C)C)CC1` (centres undefined), the values for the increase in response in test [13], in [14] and in test [17] were 19%, 86% and 84%, respectively. The values for the Decrease in fighting in test [15] and in [16] were 13% and 10%, respectively. In addition, the Decrease in activity in test [18] is reported as 65%; in test [19], 78%; in [5], 53%; in test [20], -36%; in test [21], -43%; in test [22], 26%. Further, the results for the Possible response in [10], in [11] and in test [12] were 13%, 0% and 69%, respectively.

The compound `CCCCCC(C)C(C)c1cc(O)c2c(c1)OC(C)(C)C1=C2CN(CC(=O)NC)CC1` (centres undefined) returned an ED50 in test [2] of 5.1 mg/kg. The Decrease in fighting in test [15] turned out to be 34%; in test [16], 11%. The Decrease in activity in [23] is listed as -54%; in test [24], 97%; in [18], 66%; in test [26] it was 33%; in test [19] it was 93%; in test [20], 72%. In addition, the values for the Decrease in activity in [21], in test [27] and in test [22] were 72%, 21% and 72%, respectively. The same compound registered an increase in response in test [25] of 92%. For the same compound, the Possible response in [10] came out at 100%; in [11], 92%; in [28], 100%.

For the compound `CCCCCC(C)C(C)c1cc(O)c2c(c1)OC(C)(C)C1=C2CN(CC(=O)OCC)CC1` (centres undefined), the figures for the increase in response in test [13] and in test [29] were 35% and 51%, respectively. The Decrease in activity in test [23] was determined as 60%; in test [24], 89%; in test [18] it was 19%; in [26] it was 49%; in [19], 60%; in test [20], 54%. The results for the Decrease in activity in test [21], in test [27] and in [22] were 18%, 56% and 81%, respectively. Also, the Possible response is on record as 12% in [30], 81% in [31] and 0% in [32].

For `C#CCN1CCC2=C(C1)c1c(O)cc(C(C)C(C)CCCCC)cc1OC2(C)C` (centres undefined), the ED50 in [2] came out at 4.3 mg/kg; in [3] it was 14 mg/kg. Besides, the Decrease in fighting in test [33] amounted to 62%; in [16], 48%. Besides, the Decrease in activity in test [23] is on record as 81%; in test [24] it was 33%; in test [34] it was 51%; in test [20], 80%; in [21], 59%; in test [27], 84%. In addition, the Decrease in activity in test [22] was 73%. Also, the Possible response in [35] is 71%; in test [11], 29%.
